This is an account of results in ChEMBL document CHEMBL1132891, “Carbacyclic peptide mimetics as VCAM-VLA-4 antagonists” (Bioorg Med Chem Lett, 2000).

This experiment has as its target T1, Integrin alpha-4 (Homo sapiens, UniProt P13612).
T1 sequence (P13612 whole entry): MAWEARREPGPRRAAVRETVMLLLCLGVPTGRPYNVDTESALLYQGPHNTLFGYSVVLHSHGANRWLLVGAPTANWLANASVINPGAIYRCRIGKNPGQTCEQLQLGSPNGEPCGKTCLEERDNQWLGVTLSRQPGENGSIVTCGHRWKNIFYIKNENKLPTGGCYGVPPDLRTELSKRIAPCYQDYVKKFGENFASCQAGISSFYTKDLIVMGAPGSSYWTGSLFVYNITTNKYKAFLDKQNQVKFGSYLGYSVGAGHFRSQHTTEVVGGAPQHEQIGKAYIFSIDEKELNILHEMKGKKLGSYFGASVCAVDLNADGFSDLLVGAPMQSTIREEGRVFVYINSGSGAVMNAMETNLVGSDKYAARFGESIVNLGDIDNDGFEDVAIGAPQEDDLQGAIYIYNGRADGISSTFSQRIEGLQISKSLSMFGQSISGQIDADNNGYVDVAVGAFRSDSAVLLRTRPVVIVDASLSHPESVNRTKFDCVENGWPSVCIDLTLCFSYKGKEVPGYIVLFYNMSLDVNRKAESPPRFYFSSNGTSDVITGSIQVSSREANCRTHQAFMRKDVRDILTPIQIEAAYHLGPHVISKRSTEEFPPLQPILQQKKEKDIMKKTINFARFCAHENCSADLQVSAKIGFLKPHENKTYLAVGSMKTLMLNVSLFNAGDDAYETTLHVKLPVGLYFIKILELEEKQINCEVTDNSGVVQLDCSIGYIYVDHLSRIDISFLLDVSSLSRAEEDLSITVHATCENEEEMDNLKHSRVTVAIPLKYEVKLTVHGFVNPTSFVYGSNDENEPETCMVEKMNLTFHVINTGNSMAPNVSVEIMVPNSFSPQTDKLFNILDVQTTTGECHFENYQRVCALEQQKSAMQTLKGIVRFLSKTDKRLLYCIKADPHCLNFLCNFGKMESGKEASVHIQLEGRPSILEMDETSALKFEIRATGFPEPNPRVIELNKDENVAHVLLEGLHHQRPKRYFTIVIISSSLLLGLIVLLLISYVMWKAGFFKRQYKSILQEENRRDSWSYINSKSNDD
Description: Inhibitory concentration against VLA-4 receptor using human VCAM-VLA-4 binding assay.
One may read the IC50 as the concentration at which inhibition is half-maximal. A high value points to lower potency. The compound `N[C@@H](Cc1ccc(O)cc1)C(=O)NC1CCCC[C@@H](C(=O)O)NC(=O)C2(CCCC2)CCNC1=O` (stereo in doubt; 15a) returned an IC50 of 0.089 µM.
In turn, `N[C@@H](Cc1ccc(O)cc1)C(=O)NC1CCCCC[C@@H](C(=O)O)NC(=O)C2(CCCC2)CCNC1=O` (stereo in doubt; 14b) yielded an IC50 of 0.55 µM. Against the preceding compound, the IC50 is about 6.2-fold higher.
`N[C@@H](Cc1ccc(O)cc1)C(=O)N/C1=C/CCC[C@@H](C(=O)O)NC(=O)C2(CCCC2)CCNC1=O` showed an IC50 of 0.16 µM.
The figure for `N[C@@H](Cc1ccc(O)cc1)C(=O)N/C1=C/CCCC[C@@H](C(=O)O)NC(=O)C2(CCCC2)CCNC1=O` is 0.33 µM.
The same measure for `N[C@@H](Cc1ccc(O)cc1)C(=O)N[C@H]1CSSC[C@@H](C(=O)O)NC(=O)C2(CCCC2)CCNC1=O`: 0.0005 µM; for `N[C@@H](Cc1ccc(O)cc1)C(=O)NC1CCCCC[C@@H](C(=O)O)NC(=O)C2(CCCC2)CCNC1=O` (stereo in doubt; 15b): 0.75 µM; for `N[C@@H](Cc1ccc(O)cc1)C(=O)NC1CCCC[C@@H](C(=O)O)NC(=O)C2(CCCC2)CCNC1=O` (stereo in doubt; 14a): 0.044 µM.
